Results published in ChEMBL document CHEMBL1641578, “Design and synthesis of 3-(azol-1-yl)phenylpropanes as microbicidal spermicides for prophylactic contraception” (Bioorg Med Chem Lett, 2011).
In brackets after ≈: the same amount, converted by molar mass.

Tests used:
[1] = Toxicity against Lactobacillus acidophilus at 200 ug/ml after 24 hrs by microplate reader
[2] = tested on: HeLa; test: Cytotoxicity against human HeLa cells at 200 ug/ml after 24 hrs by MTT based colorimetric assay; format: cell-based
[3] = tested on: Spermatozoa; test: Spermicidal activity against human spermatozoa assessed as immobilization measured for 60 seconds by visual scoring; format: functional; parameters: concentration or dose not given beside the values
[4] = tested on: Trichomonas vaginalis; test: Antitrichomonas activity against Trichomonas vaginalis after 48 hrs by trypan blue exclusion assay; format: functional
[5] = tested on: Candida albicans; test: Antifungal activity against Candida albicans after 48 hrs by broth microdilution assay; format: functional
[6] = tested on: Candida parapsilosis; test: Antifungal activity against Candida parapsilosis after 48 hrs by broth microdilution assay; format: functional; conditions: Lodderomyces parapsilosis
[7] = tested on: Candida albicans; test: Antifungal activity against Candida albicans MTCC-183 after 48 hrs by broth microdilution assay; format: functional; conditions: MTCC-183, 48 h
[8] = tested on: Candida albicans; test: Antifungal activity against Candida albicans isolate CDRI after 48 hrs by broth microdilution assay; format: functional
[9] = tested on: Candida albicans; test: Antifungal activity against Candida albicans NCIM-3557 after 48 hrs by broth microdilution assay; format: functional; conditions: NCIM-3557, 48 h

| SMILES | Activity [1] | Activity [2] | Activity [3] | MIC [4] | MIC [5] | MIC [6] | MIC [7] | MIC [8] | MIC [9] |
| --- | --- | --- | --- | --- | --- | --- | --- | --- | --- |
| O=C(CCn1ccnc1)c1ccccc1 | Non-toxic | Non-toxic | 100% | > 200 µg/mL | > 50 µg/mL | > 50 µg/mL | > 50 µg/mL | 50 µg/mL (≈ 250 µM) | > 50 µg/mL |
| O=C(CCn1cnc2ccccc21)c1ccccc1 | Non-toxic | Non-toxic | 100% | 200 µg/mL (≈ 799 µM) | 25 µg/mL (≈ 99.9 µM) | 50 µg/mL (≈ 200 µM) | > 50 µg/mL | 25 µg/mL (≈ 99.9 µM) | 50 µg/mL (≈ 200 µM) |
| O=C(CCn1cncn1)c1ccccc1 | Non-toxic | Non-toxic | 60% | > 200 µg/mL | > 50 µg/mL | > 50 µg/mL | > 50 µg/mL | 50 µg/mL (≈ 248 µM) | > 50 µg/mL |
| O=C(CCn1nnc2ccccc21)c1ccccc1 | Non-toxic | Non-toxic | 80% | 200 µg/mL (≈ 796 µM) | > 50 µg/mL | 50 µg/mL (≈ 199 µM) | > 50 µg/mL | > 50 µg/mL | 50 µg/mL (≈ 199 µM) |
| Cc1nccn1CCC(=O)c1ccccc1 | Non-toxic | Toxic | 100% | > 200 µg/mL | > 50 µg/mL | > 50 µg/mL | > 50 µg/mL | 50 µg/mL (≈ 233 µM) | > 50 µg/mL |
| O=C(CCn1cnc([N+](=O)[O-])c1)c1ccccc1 | Non-toxic | Non-toxic | 100% | 25 µg/mL (≈ 102 µM) | 50 µg/mL (≈ 204 µM) | > 50 µg/mL | > 50 µg/mL | 50 µg/mL (≈ 204 µM) | > 50 µg/mL |
| Cc1ncc([N+](=O)[O-])n1CCC(=O)c1ccccc1 | Non-toxic | Non-toxic | 90% | 50 µg/mL (≈ 193 µM) | > 50 µg/mL | > 50 µg/mL | > 50 µg/mL | 50 µg/mL (≈ 193 µM) | > 50 µg/mL |
| OC(CCn1ccnc1)c1ccccc1 (stereo not given) | Non-toxic | Non-toxic | 90% | > 200 µg/mL | > 50 µg/mL | > 50 µg/mL | > 50 µg/mL | 50 µg/mL (≈ 247 µM) | > 50 µg/mL |
| OC(CCn1cnc2ccccc21)c1ccccc1 (stereo not given) | Non-toxic | Non-toxic | 90% | > 200 µg/mL | > 50 µg/mL | > 50 µg/mL | > 50 µg/mL | 50 µg/mL (≈ 198 µM) | > 50 µg/mL |
| OC(CCn1cncn1)c1ccccc1 (stereo not given) | Non-toxic | Non-toxic | 70% | > 200 µg/mL | > 50 µg/mL | > 50 µg/mL | > 50 µg/mL | > 50 µg/mL | > 50 µg/mL |
| OC(CCn1nnc2ccccc21)c1ccccc1 (stereo not given) | Non-toxic | Non-toxic | 100% | > 200 µg/mL | > 50 µg/mL | > 50 µg/mL | > 50 µg/mL | 50 µg/mL (≈ 197 µM) | > 50 µg/mL |
| Cc1nccn1CCC(O)c1ccccc1 (stereo not given) | Non-toxic | Non-toxic | 100% | > 200 µg/mL | > 50 µg/mL | > 50 µg/mL | > 50 µg/mL | > 50 µg/mL | > 50 µg/mL |
| O=[N+]([O-])c1cn(CCC(O)c2ccccc2)cn1 (stereo not given) | Non-toxic | Non-toxic | 95% | 25 µg/mL (≈ 101 µM) | > 50 µg/mL | > 50 µg/mL | > 50 µg/mL | 50 µg/mL (≈ 202 µM) | > 50 µg/mL |
| Cc1ncc([N+](=O)[O-])n1CCC(O)c1ccccc1 (stereo not given) | Non-toxic | Non-toxic | 70% | 50 µg/mL (≈ 191 µM) | > 50 µg/mL | > 50 µg/mL | > 50 µg/mL | > 50 µg/mL | > 50 µg/mL |
| FC(F)(F)c1ccc(OC(CCn2cnc3ccccc32)c2ccccc2)cc1 (stereo not given) | Toxic | Toxic | 50% | 25 µg/mL (≈ 63.1 µM) | > 50 µg/mL | > 50 µg/mL | > 50 µg/mL | > 50 µg/mL | > 50 µg/mL |
| FC(F)(F)c1ccc(OC(CCn2cncn2)c2ccccc2)cc1 (stereo not given) | Toxic | Toxic | 100% | 50 µg/mL (≈ 144 µM) | 50 µg/mL (≈ 144 µM) | > 50 µg/mL | 50 µg/mL (≈ 144 µM) | > 50 µg/mL | > 50 µg/mL |
| FC(F)(F)c1ccc(OC(CCn2nnc3ccccc32)c2ccccc2)cc1 (stereo not given) | Non-toxic | Non-toxic | 70% | > 200 µg/mL | > 50 µg/mL | > 50 µg/mL | > 50 µg/mL | > 50 µg/mL | > 50 µg/mL |
| Cc1nccn1CCC(Oc1ccc(C(F)(F)F)cc1)c1ccccc1 (stereo not given) | Toxic | Toxic | 100% | 25 µg/mL (≈ 69.4 µM) | 25 µg/mL (≈ 69.4 µM) | 50 µg/mL (≈ 139 µM) | 25 µg/mL (≈ 69.4 µM) | 50 µg/mL (≈ 139 µM) | 50 µg/mL (≈ 139 µM) |
| O=[N+]([O-])c1cn(CCC(Oc2ccc(C(F)(F)F)cc2)c2ccccc2)cn1 (stereo not given) | Non-toxic | Non-toxic | 40% | 12.5 µg/mL (≈ 31.9 µM) | > 50 µg/mL | > 50 µg/mL | > 50 µg/mL | > 50 µg/mL | > 50 µg/mL |
| Cc1ncc([N+](=O)[O-])n1CCC(Oc1ccc(C(F)(F)F)cc1)c1ccccc1 (stereo not given) | Non-toxic | Non-toxic | 70% | 25 µg/mL (≈ 61.7 µM) | > 50 µg/mL | > 50 µg/mL | > 50 µg/mL | > 50 µg/mL | > 50 µg/mL |
| C(=C\c1ccccc1)/Cn1ccnc1 | Non-toxic | Non-toxic | 100% | > 200 µg/mL | > 50 µg/mL | 50 µg/mL (≈ 271 µM) | > 50 µg/mL | 25 µg/mL (≈ 136 µM) | > 50 µg/mL |
| O=[N+]([O-])c1cn(C/C=C/c2ccccc2)cn1 | Non-toxic | Non-toxic | 80% | 25 µg/mL (≈ 109 µM) | > 50 µg/mL | > 50 µg/mL | > 50 µg/mL | > 50 µg/mL | > 50 µg/mL |
| Cc1ncc([N+](=O)[O-])n1C/C=C/c1ccccc1 | Non-toxic | Non-toxic | 90% | 25 µg/mL (≈ 103 µM) | 50 µg/mL (≈ 206 µM) | > 50 µg/mL | > 50 µg/mL | > 50 µg/mL | > 50 µg/mL |
| FC(F)(F)c1ccc(OC/C=C/c2ccccc2)cc1 | Non-toxic | Non-toxic | 90% | > 200 µg/mL | > 50 µg/mL | > 50 µg/mL | > 50 µg/mL | 50 µg/mL (≈ 180 µM) | > 50 µg/mL |
| FC(F)(F)c1ccc(OC(CCn2ccnc2)c2ccccc2)cc1 (stereo not given) | Toxic | Toxic | 100% | 12.5 µg/mL (≈ 36.1 µM) | 12.5 µg/mL (≈ 36.1 µM) | 50 µg/mL (≈ 144 µM) | 50 µg/mL (≈ 144 µM) | 50 µg/mL (≈ 144 µM) | 50 µg/mL (≈ 144 µM) |
| OC(Cn1cncn1)(Cn1cncn1)c1ccc(F)cc1F [FLUCONAZOLE] |  |  |  |  | 0.5 µg/mL (≈ 1.63 µM) | 0.5 µg/mL (≈ 1.63 µM) | 0.25 µg/mL (≈ 0.816 µM) | 0.25 µg/mL (≈ 0.816 µM) | 0.25 µg/mL (≈ 0.816 µM) |
| Cc1ncc([N+](=O)[O-])n1CCO [METRONIDAZOLE] |  |  |  | 2 µg/mL (≈ 11.7 µM) |  |  |  |  |  |
| CCCCCCCCCc1ccc(OCCOCCOCCOCCOCCOCCOCCOCCOCCO)cc1 [NONOXYNOL 9] | Non-toxic | Non-toxic | 100% | 37.4 µg/mL (≈ 60.6 µM) | > 50 µg/mL | 50 µg/mL (≈ 81.1 µM) | > 50 µg/mL | > 50 µg/mL | > 50 µg/mL |
